Results on 36 compounds are retold here after patent US9963439B2, “Specific inhibitors of cytochrome P450 26 retinoic acid hydroxylase” (University of Washington Through its Center for …, priority 2013, dated 2018).

One data set addresses CYP26A1 (Homo sapiens (Human), UniProt O43174). Description: CYP26A1 inhibition assay (9-cis-4-OH-RA formation from 9-cis-RA, recombinant microsomes). It is filed as biochemical. The settings on record: for CYP26A1/CYP26B1: ratio of IC50 values, Table 2; for inhibition at 100 µM: read-out: Maximum inhibition of CYP26A1 observed.
Data set [1] deals with T1, CYP26B1 (Homo sapiens (Human), UniProt Q9NR63). Description: CYP26B1 inhibition assay (9-cis-4-OH-RA formation from 9-cis-RA, recombinant microsomes). It is filed as biochemical.
T1 sequence (Q9NR63 whole entry): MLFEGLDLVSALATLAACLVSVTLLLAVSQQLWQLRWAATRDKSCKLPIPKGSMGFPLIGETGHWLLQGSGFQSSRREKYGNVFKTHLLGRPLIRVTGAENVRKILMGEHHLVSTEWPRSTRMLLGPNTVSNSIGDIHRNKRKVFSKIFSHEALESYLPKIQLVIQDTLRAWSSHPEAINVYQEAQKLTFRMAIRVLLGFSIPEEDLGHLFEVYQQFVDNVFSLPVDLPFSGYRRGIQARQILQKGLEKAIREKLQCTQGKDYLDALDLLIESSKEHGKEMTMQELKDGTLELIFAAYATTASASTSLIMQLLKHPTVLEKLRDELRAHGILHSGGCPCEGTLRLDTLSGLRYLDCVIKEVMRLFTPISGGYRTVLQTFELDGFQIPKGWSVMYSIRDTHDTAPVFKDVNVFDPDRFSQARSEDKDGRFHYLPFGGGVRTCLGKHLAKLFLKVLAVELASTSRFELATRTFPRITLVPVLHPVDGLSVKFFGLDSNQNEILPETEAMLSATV
Description: (§1) CYP26A1 and CYP26B1 were expressed in Sf9 cells and used as microsomal fractions supplemented with rat P450 reductase expressed in Escherichia coli as described previously. Incubations were performed with 5 pmol of P450 (CYP26A1 or CYP26B1) and 10 pmol of P450 reductase. The purified rat reductase was added to CYP26A1 or CYP26B1 microsomes, and allowed to incorporate into the membrane for 10 min at room temperature. […] Compounds were dissolved in methanol or dimethyl sulfoxide, and final solvent amounts in the incubations were kept at 1%. The samples were preincubated for 5 min at 37° C. before the reaction was initiated with NADPH (final concentration 1 mM). Incubation times were 1 minute and 5 minutes for CYP26A1 and CYP26B1 incubations respectively.
The formation of 9-cis-4-OH-RA by CYP26B1 was measured by HPLC as described previously for CYP26A1. Product formation was linear from 1 minute to 8 minutes. […] Five minutes after reactions were initiated with NADPH the reactions were quenched with 5 ml of ethyl acetate, acitretin was added as an internal standard, samples extracted, evaporated to dryness, reconstituted in methanol and analyzed by HPLC as described previously. A standard curve of 9-cis-4-OH-RA was used to quantify product formation by analysis of the peak area of the primary metabolite on an HPLC.
Eighteen compounds were tested as potential inhibitors of CYP26A1 and CYP26B1. The formation of 9-cis-4-OH-RA metabolite was monitored and the percent activity remaining in the presence of the inhibitor in comparison to the solvent only control was quantified. For IC50 determination, 6-8 concentrations of the inhibitor spanning below and above the predicted IC50 were tested, and each concentration was analyzed in triplicate. The IC50 values were determined by nonlinear regression using GraphPad Prism, according to equation 1:
(§2) [formula] in which 100%*(Vi/V) is the percentage of activity remaining at a given inhibitor (I) concentration, (Vi/V)max*100% is the fitted maximum percentage activity remaining, and (Vi/V)min*100% is the minimum percentage activity remaining.
[formula] in which Kd is the affinity constant of the inhibitor, [I] is the concentration of inhibitor, [E] is the concentration of enzyme, and [EI] is the concentration of the enzyme-inhibitor complex.
Data set [2] concerns the target T1, CYP26B1. The experiment in a line: Michaelis-Menten kinetics of RA hydroxylation by CYP26B1.
Description: Incubations were performed with 5 pmol of P450 (CYP26A1 or CYP26B1) and 10 pmol of P450 reductase. The purified rat reductase was added to CYP26A1 or CYP26B1 microsomes, and allowed to incorporate into the membrane for 10 min at room temperature. […] Compounds were dissolved in methanol or dimethyl sulfoxide, and final solvent amounts in the incubations were kept at 1%. The samples were preincubated for 5 min at 37° C. before the reaction was initiated with NADPH (final concentration 1 mM). Incubation times were 1 minute and 5 minutes for CYP26A1 and CYP26B1 incubations respectively.
The formation of 9-cis-4-OH-RA by CYP26B1 was measured by HPLC as described previously for CYP26A1. Product formation was linear from 1 minute to 8 minutes. […] Five minutes after reactions were initiated with NADPH the reactions were quenched with 5 ml of ethyl acetate, acitretin was added as an internal standard, samples extracted, evaporated to dryness, reconstituted in methanol and analyzed by HPLC as described previously. A standard curve of 9-cis-4-OH-RA was used to quantify product formation by analysis of the peak area of the primary metabolite on an HPLC. The Michaelis-Menten equation was fit to the data using GraphPad Prism (GraphPad Software Inc., San Diego, Calif.), and the Km and Vmax values were obtained from this fit.
The target of a further data set is CYP2C9 (Homo sapiens (Human), UniProt P11712). The experiment in a line: Inhibition of CYP2C9 in pooled human liver microsomes (diclofenac probe). For orientation: Microsomes from liver hold many membrane-bound enzymes, among them those of drug oxidation.
CYP2C9, sequence (P11712 whole entry): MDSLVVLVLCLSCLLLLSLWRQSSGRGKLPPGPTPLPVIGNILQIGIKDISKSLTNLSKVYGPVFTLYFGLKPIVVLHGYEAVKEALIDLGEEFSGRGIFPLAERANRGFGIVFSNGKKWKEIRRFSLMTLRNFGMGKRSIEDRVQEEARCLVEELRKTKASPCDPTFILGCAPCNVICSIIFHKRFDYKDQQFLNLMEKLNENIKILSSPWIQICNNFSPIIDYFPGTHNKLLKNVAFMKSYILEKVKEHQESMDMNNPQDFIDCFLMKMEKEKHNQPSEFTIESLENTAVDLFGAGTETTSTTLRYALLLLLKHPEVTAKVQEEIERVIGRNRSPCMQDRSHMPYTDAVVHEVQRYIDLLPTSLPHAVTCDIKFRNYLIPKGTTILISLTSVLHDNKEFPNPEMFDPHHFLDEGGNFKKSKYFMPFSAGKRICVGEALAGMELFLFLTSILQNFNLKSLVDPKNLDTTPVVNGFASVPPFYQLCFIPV
For a further data set, the target named is CYP3A4 (Homo sapiens (Human), UniProt P08684). The experiment in a line: Inhibition of CYP3A4 in pooled human liver microsomes (midazolam probe). It is filed as in vitro ADME.
CYP3A4, sequence (P08684 whole entry): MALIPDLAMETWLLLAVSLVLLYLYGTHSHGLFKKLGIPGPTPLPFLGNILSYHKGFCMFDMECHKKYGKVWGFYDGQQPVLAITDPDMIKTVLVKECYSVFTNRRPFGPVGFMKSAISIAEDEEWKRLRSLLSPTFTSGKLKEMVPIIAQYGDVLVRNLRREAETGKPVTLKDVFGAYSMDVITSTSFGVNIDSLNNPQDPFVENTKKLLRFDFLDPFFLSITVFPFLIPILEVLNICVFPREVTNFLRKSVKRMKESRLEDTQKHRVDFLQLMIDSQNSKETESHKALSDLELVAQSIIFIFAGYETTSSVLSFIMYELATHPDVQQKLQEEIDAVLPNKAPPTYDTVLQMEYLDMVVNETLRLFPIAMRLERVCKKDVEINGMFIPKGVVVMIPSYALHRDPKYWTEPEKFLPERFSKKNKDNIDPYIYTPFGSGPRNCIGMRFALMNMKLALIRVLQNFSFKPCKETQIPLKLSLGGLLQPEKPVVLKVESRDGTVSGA
A further data set has as its target CYP2C8 (Homo sapiens (Human), UniProt P10632). The experiment in a line: Inhibition of CYP2C8 in pooled human liver microsomes (paclitaxel probe). It is filed as in vitro ADME.
For data set [3], the system named is cytochromes involved in the biosynthetic pathways of testicular, ovarian and adrenal steroids. The settings on record: Berth-Jones 2000; Bruynseels 1990; cited from earlier work.
The conditions of data set [4]: animal models; cited from earlier work.
Setting [5] is: Table 3, unit inferred, read-out: CYP26A1 (IC50).
Where [6] appears, read: Table 3, unit inferred, read-out: CYP2681 (CYP26B1, IC50).
Setting [7] is: Table 4, acidic compounds, unit inferred, read-out: CYP26A1 (IC50).
Where [8] appears, read: Table 4, acidic compounds, unit inferred, read-out: CYP26B1 (IC50).
Where [9] appears, read: read-out: CYP2C9 IC50 nM, pooled human liver microsomes, diclofenac 5 μM.
The mark [10] stands for this setting: pooled human liver microsomes, paclitaxel 4 μM.

Read-outs that look alike come from different tables or passages of the source. A value given as a limit tells only on which side of the number the result lay.

CYP26A1, sequence (O43174 whole entry): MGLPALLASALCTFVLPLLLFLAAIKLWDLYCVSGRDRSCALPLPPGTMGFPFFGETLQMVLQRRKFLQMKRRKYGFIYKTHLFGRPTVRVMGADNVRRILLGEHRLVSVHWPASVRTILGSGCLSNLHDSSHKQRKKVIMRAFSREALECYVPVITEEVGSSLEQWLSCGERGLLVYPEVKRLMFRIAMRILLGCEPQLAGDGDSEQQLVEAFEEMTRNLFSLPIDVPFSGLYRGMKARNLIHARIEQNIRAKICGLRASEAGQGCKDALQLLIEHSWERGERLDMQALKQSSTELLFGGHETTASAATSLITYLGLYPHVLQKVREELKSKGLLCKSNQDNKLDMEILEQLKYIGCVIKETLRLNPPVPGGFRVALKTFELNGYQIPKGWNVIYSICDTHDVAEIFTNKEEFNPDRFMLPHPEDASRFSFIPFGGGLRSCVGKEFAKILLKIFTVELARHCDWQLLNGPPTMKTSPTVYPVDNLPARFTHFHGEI
CYP2C8, sequence (P10632 whole entry): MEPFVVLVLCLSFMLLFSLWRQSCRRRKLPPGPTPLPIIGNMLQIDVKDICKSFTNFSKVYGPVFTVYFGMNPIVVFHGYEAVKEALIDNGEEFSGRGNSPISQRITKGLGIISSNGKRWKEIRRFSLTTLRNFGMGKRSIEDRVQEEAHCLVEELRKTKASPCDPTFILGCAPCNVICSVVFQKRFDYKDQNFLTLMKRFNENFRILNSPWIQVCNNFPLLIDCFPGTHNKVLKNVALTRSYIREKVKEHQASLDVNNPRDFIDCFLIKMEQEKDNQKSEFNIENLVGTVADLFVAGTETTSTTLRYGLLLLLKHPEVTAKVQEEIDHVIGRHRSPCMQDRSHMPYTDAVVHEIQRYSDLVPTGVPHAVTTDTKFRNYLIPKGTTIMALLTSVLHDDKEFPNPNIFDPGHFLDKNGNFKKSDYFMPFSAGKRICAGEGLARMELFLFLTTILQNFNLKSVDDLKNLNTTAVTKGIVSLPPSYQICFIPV
Description for CYP26A1: as §1
The formation of 9-cis-4-OH-RA metabolite was monitored and the percent activity remaining in the presence of the inhibitor in comparison to the solvent only control was quantified. For IC50 determination, 6-8 concentrations of the inhibitor spanning below and above the predicted IC50 were tested, and each concentration was analyzed in triplicate. The IC50 values were determined by nonlinear regression using GraphPad Prism, according to equation 1:
as §2
Description for CYP2C8: (§3) Concentrations of organic solvents were kept to <1% (v/v). All incubations were pre-incubated at 37° C. for 5 minutes prior to addition of 1 mM NADPH (final concentration). Incubations were stopped after 5 (CYP3A4) or 15 minutes (CYP2C8 and CYP2C9) with one volume (v/v) of ice-cold acetonitrile containing 0.1 μM tolbutamide as an internal standard. All samples were vortexed and centrifuged prior to LC-MS/MS analysis.
(§4) Detection of 6-hydroxypaclitaxel, 4-hydroxydiclofenac or 1′-hydroxymidazolam was achieved using a Gemini C18 2.0×30 mm 5 column (Phenomenex, Torrance, Calif.). Gradient elution (flow rate=500 μL/min) carried out using a mobile phase system consisting of (A) 5 mM ammonium formate with 0.1% formic acid and (B) acetonitrile with 0.1% formic acid. HPLC flow was diverted from the MS/MS system for the first 20 seconds to remove any non-volatile salts. Generic MS parameters included the curtain gas (10 arbitrary units), CAD gas (medium), ionspray voltage (4500 V), source temperature (450° C.) and ion source gas 1 and gas 2 (40 arbitrary units, each). Interface heaters were kept on for all analytes. Probe substrate mass transitions were identical to previously published methods. Briefly, the LC-MS/MS system utilized was comprised of an Applied Biosystems 4000 Q-Trap equipped with an electrospray ionization source (Applied Biosystems, Foster City, Calif.). The MS/MS system was coupled to two LC-20AD pumps with an in-line CBM-20A controller and DGU-20A5 solvent degasser (shinadzu, Columbia, Md.) and a LEAP CTC HTS PAL autosampler equipped with a dual-solvent self-washing system (CTC Analytics, Carrboro, N.C.). An injection volume of 20 μL was used for all analyses. Standard curves and mass spectrometry data were fit using Analyst (version 1.4; Applied Biosystems, Foster City, Calif.).
Description for CYP2C9: as §3, §4
Description for CYP3A4: as §3, §4

Regarding `CC1(C)CCC(C)(C)c2cc(NC(=O)c3ccc(C(=O)O)cc3)ccc21`, the CYP26A1/CYP26B1 on CYP26A1 was 1.8.

`CC1(C)CCC(C)(C)c2cc(C(=O)Nc3ccc(C(=O)O)cc3)ccc21`: the CYP26A1/CYP26B1 on CYP26A1 is recorded as 2.5.

For the compound `C/C(=C\c1ccc(C(=O)O)cc1)c1ccc2c(c1)C(C)(C)CCC2(C)C`, on CYP26A1, the CYP26A1/CYP26B1 is 1.1.

As for `CC1(C)CCC(C)(C)c2cc(C(=O)COc3ccc(C(=O)O)cc3)ccc21`, the CYP26A1/CYP26B1 on CYP26A1 worked out at 4.

`CC1(C)CCC(C)(C)c2cc(C(O)COc3ccc(C(=O)O)cc3)ccc21` (stereo not shown): at CYP26A1, the CYP26A1/CYP26B1 came to 2.

As for `CC1(C)CCC(C)(C)c2cc(/C(COc3ccc(C(=O)O)cc3)=N\O)ccc21`, the CYP26A1/CYP26B1 at CYP26A1 amounted to 3.

As to `CC1(C)C(=O)C(C)(C)c2cc(C(=O)Nc3ccc(C(=O)O)cc3)ccc21`, the CYP26A1/CYP26B1 at CYP26A1 came to 0.6.

As to `CC1(C)CCSc2ccc(C#Cc3ccc(C(=O)O)cn3)cc21`, the CYP26A1/CYP26B1 at CYP26A1 stood at 47.

`CC1(C)CCC(C)(C)c2cc(C#Cc3ccc(C(=O)O)cc3)ccc21`: the CYP26A1/CYP26B1 on CYP26A1 is 9.

What is called inhibition is how much of the control response was suppressed. Take `CCOC(=O)c1ccc(C#Cc2ccc3c(c2)C(C)(C)CCS3)nc1`: the inhibition at 100 µM at CYP26A1 worked out at 15%.

On to `COC(=O)c1ccc(OCC(=O)c2ccc3c(c2)C(C)(C)CCC3(C)C)cc1`, for which, at CYP26A1, the inhibition at 100 µM was 15%.

In the case of `COC(=O)c1ccc(OC/C(=N/O)c2ccc3c(c2)C(C)(C)CCC3(C)C)cc1`, at CYP26A1, the CYP26A1/CYP26B1 is listed as 8.

Take `COC(=O)c1ccc(OC/C(=N\O)c2ccc3c(c2)C(C)(C)CCC3(C)C)cc1`: the CYP26A1/CYP26B1 on CYP26A1 came out at 7.

As for `C=C(c1ccc(C(=O)O)cc1)c1cc2c(cc1C)C(C)(C)CCC2(C)C`, the IC50 was found to be 12300 nM at CYP26A1 (setting [5]) and 4000 nM on CYP26B1 [1] (setting [6]).

For `CC1(C)CCC(C)(C)c2cc(C3(c4ccc(C(=O)O)cc4)SCCS3)ccc21`, the IC50 on CYP26A1 (setting [7]) came to 1280 nM; at CYP26B1 [1] (setting [8]), 1090 nM.

With `CC1(C)CCC(C)(C)c2cc(C3(c4ccc5cc(C(=O)O)ccc5c4)OCCO3)ccc21`, the IC50 was 109 nM on CYP26A1 (setting [7]) and 1030 nM on CYP26B1 [1] (setting [8]).

As for `COc1ccc(-c2ccc(CCC(=O)O)cc2)cc1C12CC3CC(CC(C3)C1)C2`, the IC50 on CYP26B1 [1] (Table 5, read-out: CYP26B1) is 516 nM.

On to `O=C(O)CCc1ccc(-c2ccc(O)c(C34CC5CC(CC(C5)C3)C4)c2)cc1`, for which the IC50 is 314 nM at CYP26A1 (Table 5, read-out: CYP26A1) and 302 nM at CYP26B1 [1] (Table 5, read-out: CYP26B1).

In the case of `COc1ccc(-c2ccc(/C=C/C(=O)O)cc2)cc1C12CC3CC(CC(C3)C1)C2`, the IC50 at CYP26A1 (Table 5, read-out: CYP26A1) is greater than 25000 nM; on CYP26B1 [1] (Table 5, read-out: CYP26B1), greater than 25000 nM.

As for `COc1ccc(Nc2ccc(/C=C/C(=O)O)cc2)cc1C12CC3CC(CC(C3)C1)C2`, the IC50 worked out at 729 nM at CYP26A1 (Table 5, read-out: CYP26A1) and 87 nM on CYP26B1 [1] (Table 5, read-out: CYP26B1).

With `O=C(O)/C=C/c1ccc(Nc2ccc(O)c(C34CC5CC(CC(C5)C3)C4)c2)cc1`, the IC50 was 232 nM on CYP26A1 (Table 5, read-out: CYP26A1) and 95 nM on CYP26B1 [1] (Table 5, read-out: CYP26B1).

`COc1ccc(Nc2ccc(CCC(=O)O)cc2)cc1C12CC3CC(CC(C3)C1)C2`: the IC50 on CYP26A1 (Table 5, read-out: CYP26A1) was 51 nM; on CYP26B1 [1] (Table 5, read-out: CYP26B1), 51 nM.

As for `O=C(O)CCc1ccc(Nc2ccc(O)c(C34CC5CC(CC(C5)C3)C4)c2)cc1`, the IC50 on CYP26A1 (Table 5, read-out: CYP26A1) worked out at 1750 nM; on CYP26B1 [1] (Table 5, read-out: CYP26B1) it was 108 nM.

For the compound `CC1(C)CCC(C)(C)c2cc(C3(c4ccc(CCC(=O)O)cc4)OCCO3)ccc21`, the IC50 is 340 nM at CYP26A1 (Table 5, read-out: CYP26A1) and 14500 nM on CYP26B1 [1] (Table 5, read-out: CYP26B1).

For `CC1(C)CCC(C)(C)c2cc(C3(c4ccc(/C=C/C(=O)O)cc4)SCCS3)ccc21`, the IC50 at CYP26A1 (Table 5, read-out: CYP26A1) was determined as 6 nM; on CYP26B1 [1] (Table 5, read-out: CYP26B1), 4400 nM.

As for `CC1(C)CCC(C)(C)c2cc(Cc3ccc(CCC(=O)O)cc3)ccc21`, the IC50 on CYP26A1 (Table 5, read-out: CYP26A1) is greater than 10000 nM; at CYP26B1 [1] (Table 5, read-out: CYP26B1) it was 1660 nM.

As for `CC1(C)CCC(C)(C)c2cc(C3(c4ccc(/C=C/C(=O)O)cc4)OCCO3)ccc21`, the IC50 was 239 nM on CYP26A1 (Table 5, read-out: CYP26A1) and greater than 10000 nM at CYP26B1 [1] (Table 5, read-out: CYP26B1).

The Km is the substrate concentration at which the rate is half of its maximum. `CC1=C(/C=C/C(C)=C\C=C\C(C)=C\C(=O)O)C(C)(C)CCC1` [Example 9-cis-RA, 9-cis-RA]: at CYP26B1 [2], the “Vmax for 9-cis-4-OH-RA formation by CYP26B1” value is recorded as 3.6 pmol/min/pmol P450 and the “fold greater Km than atRA for CYP26B1” value is 50 fold. The intrinsic clearance on CYP26B1 [2] (from Km and Vmax) came to 6.5 µL/min. For the same compound, on CYP26B1 [2] (read-out: Km for 9-cis-4-OH-RA formation by CYP26B1, substrate 9-cis-RA 50-1000 nM, 5 min), the Km is 0.555 µM.

As for `CC(C(c1ccc(Nc2nc3ccccc3s2)cc1)n1ccnc1)N(C)C` (stereo not shown) [Example R116010, R116010], the IC50 on CYP2C9 is greater than 1000 nM; on CYP2C9 (setting [9]), 5760 nM; at CYP2C8 (bound stated), greater than 1000 nM; at CYP2C8 (setting [10]), 1760 nM. Moreover, the “Inhibition of CYP3A4 (in words)” value at CYP3A4 was “potent CYP3A4 inhibitors”.

Consider `CC1=C(/C=C/C(C)=C/C=C/C(C)=C/C(=O)O)C(C)(C)CCC1` [atRA, all-trans-retinoic acid], for which the Michaelis-Menten constant (Km) at CYP26B1 [2] (read-out: Km of atRA for CYP26B1) came out at 0.019 µM.

Take `CC1(C)CCC(C)(C)c2cc(C3(c4ccc(C(=O)O)cc4)OCCO3)ccc21` [drawing 145]: the IC50 on CYP26A1 (setting [5]) was 3300 nM; on CYP26B1 [1] (setting [6]), 14200 nM.

For the compound `CC1(C)CCC(C)(C)c2cc(C3(c4ccc5cc(C(=O)O)ccc5c4)SCCS3)ccc21` [drawing 146], the values for the IC50 on CYP26A1 (setting [5]) and on CYP26B1 [1] (setting [6]) were 61 nM and 1030 nM, respectively.

Regarding `CC1(C)CCC(C)(C)c2cc(C3(c4ccc(C(=O)O)cc4)OCCO3)ccc21` [drawing 148], the results for the IC50 on CYP26A1 (setting [7]) and on CYP26B1 [1] (setting [8]) were 7780 nM and 12600 nM, respectively.

In the case of `CC1(C)CCC(C)(C)c2cc(C3(c4ccc5cc(C(=O)O)ccc5c4)SCCS3)ccc21` [drawing 152], the IC50 at CYP26A1 (setting [7]) came to 61 nM.

Consider `Clc1cccc(C(c2ccc3[nH]cnc3c2)n2ccnc2)c1` (stereo not shown) [liarozole], for which the “inhibition of other cytochromes of steroid biosynthesis” value in data set [3] was “also inhibits other cytochromes involved in the biosynthetic pathways of testicular, ovarian and adrenal steroids”. The “Inhibition of CYP2C9 (in words)” value at CYP2C9 (pooled human liver microsomes) is “weak inhibitor”. The IC50 was 1630 nM on CYP2C9 (setting [9]); 480 nM against CYP2C8 (setting [10]); 18 nM at CYP26B1 [1] (Table 5, read-out: CYP26B1). Besides, the “Inhibition of CYP3A4 (in words)” value at CYP3A4 is given as “weak inhibitor”. Also, the “Inhibition of CYP2C8 (in words)” value on CYP2C8 (pooled human liver microsomes) is “inhibited CYP2C8 potently”. Moreover, in data set [4], the “effect on concentration of atRA in vivo” value is “increase the concentration of atRA in vivo”.

On to `CCC(CC)[C@H](c1ccc(Nc2nc3ccccc3s2)cc1)n1cncn1` [talarozole, (R)—N-[4-[2-ethyl-1-(1H-1,2,4-triazol-1-yl)butyl]phenyl]-2-benzo-thiazolamine], for which the IC50 was 5.1 nM on CYP26A1 (Table 5, read-out: CYP26A1); 680 nM at CYP2C9 (setting [9]); 220 nM on CYP2C8 (setting [10]); 0.46 nM at CYP26B1 [1] (Table 5, read-out: CYP26B1). Moreover, the “Inhibition of CYP2C9 (in words)” value at CYP2C9 (pooled human liver microsomes) is reported as “nanomolar affinity”. Moreover, on CYP3A4, the “Inhibition of CYP3A4 (in words)” value was “nanomolar affinity”. Also, the “Inhibition of CYP2C8 (in words)” value on CYP2C8 (pooled human liver microsomes) is on record as “nanomolar affinity”. For the same compound, in data set [4], the “effect on concentration of atRA in vivo” value is reported as “increase the concentration of atRA in vivo”.
